Data on 18 compounds can be found in the supplement of paper PMC10290057.

Counter-ions that a name gives are not always drawn.

For assay [1], the system named is HCT116. The assay is described as follows: efficacy (fitted maximal change in viability relative to DMSO control); higher = less cytotoxic (negative = loss of viability). The following applies: 48 h.
Assay [2] deals with HCT116. The assay is described as follows: AC50 cell viability (CellTiter-Glo); higher = less potent. Conditions: 48 h. (ATP-based viability assays read luminescence as a measure of living cells.)
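For AC50 cell viability (CellTiter-Glo) in this document: HCT116 colorectal carcinoma cells screened at five concentrations per compound, luminescent viability scaled between DMSO wells and empty wells on each plate, curves fitted per compound.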
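For efficacy (fitted maximal change in viability relative to DMSO control) in this document: Luminescence-based viability readout, five doses per compound, normalized against on-plate DMSO and empty-well controls, followed by dose-response curve fitting for every drug.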

Regarding `O=C\1NC(=O)\C(=C1C2=C[NH]C3=C2C=CC=C3)C4=C[NH]C5=C4C=CC=C5` [Bisindolylmaleimide], the efficacy in assay [1] is -85.7%. The AC50 cell viability in assay [2] was found to be 18.6 µM.
On the same counts, the results for `Cc1c(N)nc([C@H](CC(N)=O)NC[C@@H](N)C(N)=O)nc1C(=O)N[C@H](C(=O)N[C@@H](C)[C@H](O)[C@@H](C)C(=O)N[C@@H](C(=O)NCCc1nc(-c2nc(C(=O)NCCC[S+](C)C)cs2)cs1)[C@@H](C)O)C(O[C@H]1O[C@H](CO)[C@H](O)[C@@H](O)[C@H]1O[C@H]1O[C@H](CO)[C@@H](O)[C@H](OC(N)=O)[C@@H]1O)c1c[nH]cn1` (stereo partly specified) [Bleomycin sulfate] are -34.2% and 1.62 µM.
On the same counts, the results for `CC(C)C[C@H](NC(=O)[C@H](Cc1ccccc1)NC(=O)c1cnccn1)B(O)O` [Bortezomib] are -94.1% and 0.0132 µM.
The matching figures for `COc1cc(Nc2c(C#N)cnc3cc(OCCCN4CCN(C)CC4)c(OC)cc23)c(Cl)cc1Cl` [Bosutinib]: -93.7% and 4.68 µM.
Take `Cc1c(-c2ccc(-c3ccccc3F)cc2)nc2ccc(F)cc2c1C(=O)O` [Brequinar]: the efficacy in assay [1] was -62.1%. The AC50 cell viability in assay [2] came to 0.209 µM.
The matching figures for `COc1cc(OC)c(/C=C/[S+](=O)([O-])Cc2ccc(OC)c(OP(=O)(O)O)c2)c(OC)c1` [Briciclib]: -61.6% and 0.0468 µM.
On the same counts, the results for `COc1cc(N2CCC(N3CCN(C)CC3)CC2)ccc1Nc1ncc(Cl)c(Nc2ccccc2P(C)(C)=O)n1` [Brigatinib] are -75.3% and 0.525 µM.
On the same counts, the results for `Cc1ccc(Sc2ccccc2N2CCNCC2)c(C)c1` [Brintellix] are -92.6% and 11.8 µM.
As for `Cc1cc2c(F)c(Oc3ncnn4cc(OC[C@@H](C)O)c(C)c34)ccc2[nH]1` [Brivanib], the efficacy in assay [1] was -80.3%. The AC50 cell viability in assay [2] was found to be 9.34 µM.
On the same counts, the results for `COC(=O)[C@@]12OC[C@]34[C@H]([C@@H](O)[C@@H]1O)[C@@]1(C)CC(=O)C(O)=C(C)[C@@H]1C[C@H]3OC(=O)[C@H](OC(=O)/C=C(\C)C(C)C)[C@@H]24` [Bruceantin] are -71.9% and 0.00833 µM.
The matching figures for `CCCC1OC2C[C@H]3[C@@H]4CCC5=CC(=O)C=C[C@]5(C)[C@H]4C(O)C[C@]3(C)[C@]2(C(=O)CO)O1` (stereo partly specified) [Budesonide]: -52.3% and 18.6 µM.
As to `Clc1ccc(CCC(Cn2ccnc2)Sc2c(Cl)cccc2Cl)cc1` (stereo unspecified) [Butoconazole nitrate], the efficacy in assay [1] was -51.6%. In addition, the AC50 cell viability in assay [2] came to 20.9 µM.
The matching figures for `COc1ccc([S+](=O)([O-])Nc2cc(-c3c(O)ccc4ccccc34)c(O)c3ccccc23)cc1` [C-188-9]: -95.1% and 26.3 µM.
As to `CCCNC(=O)[C@H]1O[C@@H]1C(=O)N[C@H](C(=O)N1CCC[C@H]1C(=O)OC)C(C)CC` (stereo partly specified) [CA-074 Me], in assay [1], the efficacy is -88.8%. The compound also registered an AC50 cell viability in assay [2] of 18.6 µM.
The matching figures for `OCCNC1CCCc2c1[nH]c1ccc(-c3ccccc3)cc21` (stereo unspecified) [CASIN]: -95.3% and 8.33 µM.
The matching figures for `Cc1cc2c(C(N)=O)cccc2n1-c1nc2c(c(NCc3ccccc3)n1)COCC2` [CB-5083]: -88.7% and 0.833 µM.
As to `CC(=O)c1ccc2c(c1)c1cc(C(C)=O)ccc1n2CCNC(C)C` [CBL-0137], the efficacy in assay [1] is -69.6%. Further, the AC50 cell viability in assay [2] was found to be 0.417 µM.
The matching figures for `CCN1C(=O)C\N=C/2N\C=C(/N=C12)C3=C(C)N=C(C=C3)C4=NN=C[NH]4` [CC-115]: -71% and 7.42 µM.
